Like-named read-outs stand apart in the source and are kept apart here.
Columns and labels:
Assay type in all cases: cell-based, human
MV4;11 cells = experiment: Cell proliferation experiment (Alamar blue, 72 h), MV4;11; details: read-out: Inhibitory activity IC50 on MV4;11
Method in brief: (§1)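 IC50 values derive from a four-parameter logistic fit of Alamar blue fluorescence. Cells in logarithmic growth, plated in 96-well format, are treated for 72 h with compound diluted 5-fold serially, two wells per concentration.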

NCIH82 cells = experiment: Cell proliferation experiment, NCI-H82; details: Homo sapiens, NCI-H82, NCI-H82 cells; read-out: Inhibitory activity IC50 on NCI-H82
Method in brief: as §1

MDA-MB-231 cells = experiment: Cell proliferation experiment, MDA-MB-231; details: Homo sapiens
Method: (§2) Reagents: RPMI-1640 medium, McCoy's 5A medium, IMDM medium, MEM medium, L-15 medium, fetal bovine serum. Penicillin-Streptomycin double antibody, trypsin, etc., 2-mercaptoethanol, NEAA, pyruvate, etc.
(§3) The cells were cultured in conventional ways, and the cells should be passed at least 2 generations before plating. Cells at the logarithmic growth phase were collected, prepared into single cell suspensions and counted. The concentration of cells was adjusted to the desired concentration, and cells were inoculated into a 96-well cell culture plate at 100 μl per well. 100 μL of complete medium of the test compound were added to each well, set up 2 duplicate wells for each concentration, and diluted with a 5-fold gradient, and continued to culture for 72 h. All cells were subjected to IC50 test for corresponding samples. The experimental results are shown in Test Example 4.
(§4) The fluorescence intensity of each well was detected using the Alarm blue method, and IC50 was calculated.
(§5) IC50 was calculated according to the following formula:
(§6) Y=Max+(Min−Max)/[1+(X/IC50)×Slope]
(§7) wherein Min, Max and Slope represent the minimum, maximum and slope respectively.

PC-3 = experiment: Cell proliferation experiment, PC-3; details: Homo sapiens, PC-3, PC-3 cells; read-out: Inhibitory activity IC50 on PC-3
Method: as §2, §3, §4, §5, §6, §7

[1] = Homo sapiens, MV4-11, MV4;11 cells
[2] = MDA-MB-231, MDA-MB-231 cells, read-out: Inhibitory activity IC50 on MDA-MB-231
[3] = MDA-MB-231, read-out: Inhibitory activity IC50 on MDA-MB-231

Row | SMILES | IC50 (MV4;11 cells; [1]) | IC50 (NCIH82 cells) | IC50 (MDA-MB-231 cells; [2]) | IC50 (PC-3) | IC50 (MV4;11 cells; MV4;11 cells) | IC50 (MDA-MB-231 cells; [3])
1 | CNC(=O)c1ccccc1Nc1nc(Nc2ccc(N3CCN(C(=O)NCCOCCOCC(N)COCCC(=O)Nc4ccc5c(c4)CN(C4CCC(=O)NC4=O)C5=O)CC3)cc2)ncc1Cl (stereo not shown) [UB-181065] | 10 to 100 nM | 100 to 1000 nM | > 1000 nM | > 1000 nM |  | 
2 | CNC(=O)c1ccccc1Nc1nc(Nc2ccc(N3CCN(C(=O)NCCOCCNCCC(=O)Nc4cccc5c4CN(C4CCC(=O)NC4=O)C5=O)CC3)cc2)ncc1Cl (stereo not shown) [UB-181066] | 10 to 100 nM | > 1000 nM | > 1000 nM | > 1000 nM |  | 
3 | CNC(=O)c1ccccc1Nc1nc(Nc2ccc(N3CCN(C(=O)NCCOCCNCCC(=O)Nc4ccc5c(c4)CN(C4CCC(=O)NC4=O)C5=O)CC3)cc2)ncc1Cl (stereo not shown) [UB-181067] | 10 to 100 nM | 100 to 1000 nM | > 1000 nM | > 1000 nM |  | 
4 | CNC(=O)c1ccccc1Nc1nc(Nc2ccc(N3CCN(C(=O)NCCOCCNCC(=O)Nc4cccc5c4CN(C4CCC(=O)NC4=O)C5=O)CC3)cc2)ncc1Cl (stereo not shown) [UB-181068] | 10 to 100 nM | > 1000 nM | > 1000 nM | > 1000 nM |  | 
5 | CNC(=O)c1ccccc1Nc1nc(Nc2ccc(N3CCN(C(=O)NCCOCCNCC(=O)Nc4ccc5c(c4)CN(C4CCC(=O)NC4=O)C5=O)CC3)cc2)ncc1Cl (stereo not shown) [UB-181069] | 10 to 100 nM | > 1000 nM | > 1000 nM | > 1000 nM |  | 
6 | CNC(=O)c1ccccc1Nc1nc(Nc2ccc(N3CCN(C(=O)NCCCOCCCNCCC#Cc4cccc5c4CN(C4CCC(=O)NC4=O)C5=O)CC3)cc2)ncc1Cl (stereo not shown) [UB-181070] | 10 to 100 nM | 100 to 1000 nM | 100 to 1000 nM | > 1000 nM |  | 
7 | O=C1CCC(N2Cc3cc(NC(=O)COCCOCCOCC(O)Cn4cc(-c5ccc(Nc6ncc7c(n6)-c6ccc(Cl)cc6C(c6c(F)cccc6F)=NC7)cc5)nn4)ccc3C2=O)C(=O)N1 (stereo not shown) [UB-181071] | 100 to 1000 nM | > 1000 nM | > 1000 nM | > 1000 nM |  | 
8 | O=C1CCC(N2Cc3c(NC(=O)COCCOCCOCC(O)Cn4cc(-c5ccc(Nc6ncc7c(n6)-c6ccc(Cl)cc6C(c6c(F)cccc6F)=NC7)cc5)nn4)cccc3C2=O)C(=O)N1 (stereo not shown) [UB-181072] | 100 to 1000 nM | > 1000 nM | > 1000 nM | > 1000 nM |  | 
9 | CNC(=O)c1ccccc1Nc1nc(Nc2ccc(N3CCN(C(=O)NCCOCCOCC(N)COCCC(=O)Nc4cccc5c4CN(C4CCC(=O)NC4=O)C5=O)CC3)cc2)ncc1Cl (stereo not shown) [UB-181073] | < 10 nM | > 1000 nM | > 1000 nM | > 1000 nM |  | 
10 | CNC(=O)c1ccccc1Nc1nc(Nc2ccc(N3CCN(C(=O)NCCOCC(O)COCCOCCC(=O)Nc4ccc5c(c4)CN(C4CCC(=O)NC4=O)C5=O)CC3)cc2)ncc1Cl (stereo not shown) [UB-181074] | 10 to 100 nM | > 1000 nM | > 1000 nM | > 1000 nM |  | 
11 | O=C1CCC(N2Cc3cc(NC(=O)CCOCCOCCOCC(O)Cn4cc(-c5ccc(Nc6ncc7c(n6)-c6ccc(Cl)cc6C(c6c(F)cccc6F)=NC7)cc5)nn4)ccc3C2=O)C(=O)N1 (stereo not shown) [UB-181075] | > 1000 nM | 100 to 1000 nM | > 1000 nM | > 1000 nM |  | 
12 | O=C1CCC(N2Cc3cc(NC(=O)CCOCCOCC(O)COCCn4cc(-c5ccc(Nc6ncc7c(n6)-c6ccc(Cl)cc6C(c6c(F)cccc6F)=NC7)cc5)nn4)ccc3C2=O)C(=O)N1 (stereo not shown) [UB-181077] |  | > 1000 nM | > 1000 nM | > 1000 nM | 100 to 1000 nM | 
13 | CNC(=O)c1ccccc1Nc1nc(Nc2ccc(N3CCN(C(=O)NCCOCC(O)COCCOCCC(=O)Nc4cccc5c4CN(C4CCC(=O)NC4=O)C5=O)CC3)cc2)ncc1Cl (stereo not shown) [UB-181079] | < 10 nM | 100 to 1000 nM | > 1000 nM | > 1000 nM |  | 
14 | CNC(=O)c1ccccc1Nc1nc(Nc2ccc(N3CCN(C(=O)NCC(O)COCCOCCOCCC(=O)Nc4ccc5c(c4)CN(C4CCC(=O)NC4=O)C5=O)CC3)cc2)ncc1Cl (stereo not shown) [UB-181081] | 10 to 100 nM | > 1000 nM | > 1000 nM | > 1000 nM |  | 
15 | CNC(=O)c1ccccc1Nc1nc(Nc2ccc(N3CCN(C(=O)NCC(O)COCCOCCOCCC(=O)Nc4cccc5c4CN(C4CCC(=O)NC4=O)C5=O)CC3)cc2)ncc1Cl (stereo not shown) [UB-181082] | 10 to 100 nM | > 1000 nM | > 1000 nM | > 1000 nM |  | 
16 | CNC(=O)c1ccccc1Nc1nc(Nc2ccc(N3CCN(C(=O)NCCCOCC(=O)COCC#Cc4cccc5c4CN(C4CCC(=O)NC4=O)C5=O)CC3)cc2)ncc1Cl (stereo not shown) [UB-181083] | 10 to 100 nM | > 1000 nM | > 1000 nM | > 1000 nM |  | 
17 | CNC(=O)c1ccccc1Nc1nc(Nc2ccc(N3CCN(C(=O)N[C@H]4CC[C@@H](NCCCOCCC#Cc5ccc6c(c5)CN(C5CCC(=O)NC5=O)C6=O)CC4)CC3)cc2)ncc1Cl (stereo partly shown) [UB-181084] | < 10 nM | 100 to 1000 nM | 100 to 1000 nM | 100 to 1000 nM |  | 
18 | CNC(=O)c1ccccc1Nc1nc(Nc2ccc(N3CCN(C(=O)NCCOCC(=O)COCCOCCC(=O)Nc4ccc5c(c4)CN(C4CCC(=O)NC4=O)C5=O)CC3)cc2)ncc1Cl (stereo not shown) [UB-181086] | 10 to 100 nM | 100 to 1000 nM | > 1000 nM | > 1000 nM |  | 
19 | CNC(=O)c1ccccc1Nc1nc(Nc2ccc(N3CCN(C(=O)NCCOCC(COCCOCCC(=O)Nc4cccc5c4CN(C4CCC(=O)NC4=O)C5=O)NC)CC3)cc2)ncc1Cl (stereo not shown) [UB-181088] | < 10 nM | > 1000 nM |  | > 1000 nM |  | > 1000 nM
20 | CNC(=O)c1ccccc1Nc1nc(Nc2ccc(N3CCN(C(=O)NCCOCC(COCCOCCC(=O)Nc4ccc5c(c4)CN(C4CCC(=O)NC4=O)C5=O)NC)CC3)cc2)ncc1Cl (stereo not shown) [UB-181090] | 10 to 100 nM | > 1000 nM |  | > 1000 nM |  | > 1000 nM

More lines, main results first:

Row | IC50 (MV4;11 cells; [1]) | IC50 (NCIH82 cells) | IC50 (MDA-MB-231 cells; [2]) | IC50 (PC-3) | IC50 (MV4;11 cells; MV4;11 cells) | SMILES | IC50 (MDA-MB-231 cells; [3])
21 | < 10 nM | 100 to 1000 nM | > 1000 nM | 100 to 1000 nM |  | CNC(=O)c1ccccc1Nc1nc(Nc2ccc(N3CCN(C(=O)N[C@H]4CC[C@@H](NCCCOCCC#Cc5cccc6c5CN(C5CCC(=O)NC5=O)C6=O)CC4)CC3)cc2)ncc1Cl (stereo partly shown) [UB-181087] | 
22 | < 10 nM | 100 to 1000 nM | 100 to 1000 nM | > 1000 nM |  | CNC(=O)c1ccccc1Nc1nc(Nc2ccc(N3CCN(C(=O)N[C@H]4CC[C@@H](NCCCOCC#Cc5cccc6c5CN(C5CCC(=O)NC5=O)C6=O)CC4)CC3)cc2)ncc1Cl (stereo partly shown) [UB-181091] | 
23 | 10 to 100 nM | > 1000 nM | > 1000 nM | > 1000 nM |  | CNC(=O)c1ccccc1Nc1nc(Nc2ccc(N3CCN(C(=O)N[C@H]4CC[C@@H](NCCCOCCC(=O)Nc5cccc6c5CN(C5CCC(=O)NC5=O)C6=O)CC4)CC3)cc2)ncc1Cl (stereo partly shown) [UB-181092] | 
24 | 10 to 100 nM | > 1000 nM | > 1000 nM | > 1000 nM |  | CNC(=O)c1ccccc1Nc1nc(Nc2ccc(N3CCN(C(=O)N[C@H]4CC[C@@H](NCCCOCCC(=O)Nc5ccc6c(c5)CN(C5CCC(=O)NC5=O)C6=O)CC4)CC3)cc2)ncc1Cl (stereo partly shown) [UB-181093] | 
25 | < 10 nM | 100 to 1000 nM | > 1000 nM | > 1000 nM |  | CNC(=O)c1ccccc1Nc1nc(Nc2ccc(N3CCN(C(=O)NCCCOCCCNCCC#Cc4ccc5c(c4)CN(C4CCC(=O)NC4=O)C5=O)CC3)cc2)ncc1Cl (stereo not shown) [UB-181094] | 
26 | < 10 nM | 100 to 1000 nM | > 1000 nM | 100 to 1000 nM |  | CNC(=O)c1ccccc1Nc1nc(Nc2ccc(N3CCN(C(=O)NCCCCOCCCCNCCC#Cc4ccc5c(c4)CN(C4CCC(=O)NC4=O)C5=O)CC3)cc2)ncc1Cl (stereo not shown) [UB-181095] | 
27 | < 10 nM | 100 to 1000 nM | 100 to 1000 nM | 100 to 1000 nM |  | CNC(=O)c1ccccc1Nc1nc(Nc2ccc(N3CCN(C(=O)N[C@H]4CC[C@@H](NCCCOCC#Cc5ccc6c(c5)CN(C5CCC(=O)NC5=O)C6=O)CC4)CC3)cc2)ncc1Cl (stereo partly shown) [UB-181096] | 
28 | 100 to 1000 nM | > 1000 nM | > 1000 nM | > 1000 nM |  | CNC(=O)c1ccccc1Nc1nc(Nc2ccc(N3CCN(C(=O)N[C@H]4C[C@H](NCCCOCCC#Cc5ccc6c(c5)CN(C5CCC(=O)NC5=O)C6=O)C4)CC3)cc2)ncc1Cl (stereo partly shown) [UB-181097] | 
29 | < 10 nM | 10 to 100 nM | > 1000 nM | 100 to 1000 nM |  | CNC(=O)c1ccccc1Nc1nc(Nc2ccc(N3CCN(C(=O)NCCCCOCCCCNC#Cc4cccc5c4CN(C4CCC(=O)NC4=O)C5=O)CC3)cc2)ncc1Cl (stereo not shown) [UB-181098] | 
30 | 10 to 100 nM | 100 to 1000 nM | > 1000 nM | > 1000 nM |  | CNC(=O)c1ccccc1Nc1nc(Nc2ccc(N3CCN(C(=O)NC4CCC(NCCCCOCC(=O)Nc5ccc6c(c5)CN(C5CCC(=O)NC5=O)C6=O)CC4)CC3)cc2)ncc1Cl (stereo not shown) [UB-181109] | 
31 | 10 to 100 nM | 100 to 1000 nM | > 1000 nM | > 1000 nM |  | CNC(=O)c1ccccc1Nc1nc(Nc2ccc(N3CCN(C(=O)NCCCOCCNCCC#Cc4ccc5c(c4)CN(C4CCC(=O)NC4=O)C5=O)CC3)cc2)ncc1Cl (stereo not shown) [UB-181110] | 

Reference: patent US20230210999A1, “TARGETED PROTEASE DEGRADATION (TED) PLATFORM” (EUBULUS BIOTHERAPEUTICS INC., priority 2020, published 2023)
